Key:
Format in all cases: cell-based
[1] = tested on: pancreatic progenitor cells and pancreatic islet β cells differentiated from human embryonic stem cells; assay: Real-time fluorescence quantitative PCR of PDX1, NKX6-1 and INS mRNA (human embryonic stem cells); details: qPCR
Experimental: (§1) a pancreatic progenitor cell medium was prepared, the medium in step 1) was replaced with the pancreatic progenitor cell medium, and the cells were cultured in a carbon dioxide incubator at 37 degrees Celsius for 5 days, during which the medium was replaced every day, wherein the composition of the pancreatic progenitor cell medium was: with an MCDB131 medium as a basic medium, and the following components at the working concentrations were further included: 0.5% of bovine serum albumin (BSA), 1.5 g/L of sodium bicarbonate, 1×glutamine (GlutaMAX), 10 mM glucose, 0.25 M vitamin C, 1×insulin-transferrin-selenium-ethanolamine additive (ITS-X), 50 ng/ml of fibroblast growth factor 7 (KGF), 0.5 μM SANT1 (with smo as an inhibitor target), 100 nM retinoic acid (TTNPB), 500 nM phorbol 12,13-dibutyrate (PDBu), 2 μM ALK inhibitor (K02288), and 2 μM WNT signaling pathway inhibitor XAV-939 (not added in a control group), with the concentrations all being final concentrations.
(§2) b. pancreatic islet β cell medium 2 was prepared, the pancreatic islet β cell medium 1 in above-mentioned step a was replaced with the pancreatic islet β cell medium 2, and the cells were cultured in a carbon dioxide incubator at 37 degrees Celsius for 5 days, during which the medium was replaced every day, wherein the composition of the pancreatic islet β cell medium 1 was: with an MCDB131 medium as a basic medium, and the following components at the working concentrations were further included: 20 mM glucose, 2% of bovine serum albumin (BSA), 1.5 g/L of sodium bicarbonate, 1×glutamine (GlutaMAX), 0.05 mM vitamin C, 1×insulin-transferrin-selenium-ethanolamine additive (ITS-X), 2 μM ALK inhibitor (K02288), 1 μM triiodothyronine (T3), 10 μM YO-01027 (Notch signaling pathway inhibitor), and 10 μM zinc sulfate, with the concentrations all being final concentrations; and the composition of the pancreatic islet β cell medium 2 was: with an MCDB131 medium as a basic medium, and the following components at the working concentrations were further included: 20 mM glucose, 2% of bovine serum albumin (BSA), 1.5 g/L of sodium bicarbonate, 1×glutamine (GlutaMAX), 0.05 mM vitamin C, 1×insulin-transferrin-selenium-ethanolamine additive (ITS-X), 1 μM triiodothyronine (T3), 10 μM Repsox (ALK5 inhibitor), 10 μM vitamin E, 10 μg/ml of heparin sodium, 2 μM R428 (Axl inhibitor), 10 μM zinc sulfate, and 10 mM N-acetyl-L-cysteine (N-cys), with the concentrations all being final concentrations.
Cells cultured in a 24-well plate were collected, and washed twice with 500 μl of DPBS at first, then covered with 200 μl of chymotrypsin-trypsin (Trypsin), and placed at 37° C. for 5 minutes of digestion. Whether the cells float in pieces was observed, and the digestion was terminated using 500 μl of DMEM/F12 medium, then the product was centrifuged at 1000 rpm for 3 minutes, the supernatant was removed, and cell pellets were collected and added to a new RNase-free centrifuge tube. […]

[2] = tested on: pancreatic progenitor cells and pancreatic islet β cells differentiated from human embryonic stem cells; assay: Immunofluorescence detection of PDX1 and PDX1/INS proteins (human embryonic stem cells)
Experimental: as §1, §2
Cells in a culture plate were washed three times with a phosphate buffered saline (PBS), 3 minutes each time; the cells were fixed with 4% paraformaldehyde at room temperature for 20 minutes, and washed three times with PBS, 3 minutes each time; a blocking solution was prepared in advance (by adding Triton at a final concentration of 0.3% to 9 ml of DPBS, adding donkey serum at a final concentration of 10%, and uniformly mixing); the above-prepared blocking solution was used for blocking and perforation at room temperature for 2 hours; the blocking solution was soaked up, a working concentration of primary antibody prepared with the blocking solution was then added, and the product was left to stand at room temperature for 30 minutes and then placed in a refrigerator at 4° C. overnight; the next day, the product was washed three times with PBS, 3 minutes each time; a fluorescent secondary antibody of donkey serum was added and incubation was carried out at room temperature for 2 hours; in the same way, the product was washed three times with PBS, 3 minutes each time; the product was incubated with a working solution of the nuclear dye DAPI at room temperature for 10 minutes, and washed three times with PBS, 3 minutes each time; then a fluorescence microscope was used for observation and data were collected. […]

[3] = tested on: pancreatic progenitor cells and pancreatic islet β cells differentiated from human induced pluripotent stem cells; assay: Real-time fluorescence quantitative PCR of PDX1, NKX6-1 and INS mRNA (human induced pluripotent stem cells); details: qPCR
Experimental: as §1, with “factor” for “factor 7”, “concentrations. […]” for “concentrations.”

[4] = 2 μM inhibitor added in pancreatic progenitor cell stage
[5] = 2 μM inhibitor in pancreatic progenitor cell stage, GAPDH reference
[6] = 2 μM inhibitor in pancreatic progenitor cell stage

## Oc1nc(-c2ccc(C(F)(F)F)cc2)nc2c1CSCC2 [XAV-939]
[1]; [4]
  transcription level of the insulin gene INS in the mature pancreatic islet β cell stage: greatly increased
[1]; [5]
  relative expression of mRNA of NKX6-1 in pancreatic progenitor cells: significantly increased
  relative expression of mRNA of PDX1 in pancreatic progenitor cells: significantly increased
[2]; 2 μM inhibitor added in pancreatic progenitor cell stage, immunofluorescence
  number of insulin INS-positive and PDX1 co-stained pancreatic islet β cells in the mature pancreatic islet β cell stage: significantly increased
[2]; [6]
  PDX1-positive pancreatic progenitor cells (immunofluorescence): significantly increased
  cell growth (total cell number by DAPI): did not affect the cell growth
[3]; [4]
  transcription level of the insulin gene INS in the mature pancreatic islet β cell stage: greatly increased
[3]; [5]
  relative expression of mRNA of NKX6-1 in pancreatic progenitor cells: significantly increased
  relative expression of mRNA of PDX1 in pancreatic progenitor cells: significantly increased
